39 molecules from PubChem BioAssay AID790 (SRMLSC, 2007) can be followed below.

SMILES strings stand for the structures. pIC50: −log10 of the molar value. Activity calls are given as the source filed them. No rule for the calls is given here.

The nature of test [1]: growth inhibition of yeast vps1Δ mutant, dose response, S. cerevisiae, background strain comparison (AID 790). The settings on record: S. cerevisiae vps1Δ mutant growth inhibition; measured here: background strain growth inhibition.
Test [2] has as its system S. cerevisiae vps1Δ mutant growth inhibition. The test is described as above.

As a reminder, the pIC50 is −log10 of the IC50, conventionally taken in molar units. In general, IC50 refers to the concentration that inhibits the measured activity by half. In turn, `COc1ccc(NC(=S)NC(NC(=O)c2ccc(Cl)cc2Cl)C(Cl)(Cl)Cl)c([N+](=O)[O-])c1` (stereo not drawn) gave a pIC50 in test [1] of less than 5.00. In addition, the IC50 in test [2] was > 10 µM (inactive).
On the same counts, the results for `c1ccc(COc2ccc(CN3CCN(c4ccccn4)CC3)cc2)cc1` are less than 5.00 and > 10 µM (inactive).
With `CCC(C)(C)n1nnnc1C(c1cc2cc3c(cc2[nH]c1=O)OCO3)N1CCN(C)CC1` (stereo not drawn), the pIC50 in test [1] was less than 5.00. For the same molecule, the IC50 in test [2] is > 10 µM (inactive).
As for `CCN1C(=O)c2ccc(C(=O)NCc3ccccc3)cc2C1=O`, in test [1], the pIC50 is less than 5.00. Moreover, the IC50 in test [2] is > 10 µM (inactive).
Take `Cc1cccc(OCC(=O)O/N=C(\N)Cc2ccc(Cl)cc2)c1`: the pIC50 in test [1] is 4.98. Besides, the IC50 in test [2] was > 10 µM (inactive).
On the same counts, the results for `Cc1ccn2cc(-c3nonc3C)cc2c1` are less than 5.00 and > 10 µM (inactive).
Consider `CC(NC(=O)CSc1nc2c(cc1C#N)CN(C)CC2)c1ccccc1` (stereo not drawn), for which the pIC50 in test [1] was less than 5.00. In test [2], the IC50 was > 10 µM (inactive).
In the case of `CCc1ccc(C(=O)/C=C/c2ccc([N+](=O)[O-])o2)cc1`, the pIC50 in test [1] was 4.68; in test [2], 5.67.
As for `CCC(=O)c1ccc(N2CCN(C(=O)c3ccc(Br)cc3)CC2)c(F)c1`, the pIC50 in test [1] was less than 5.00. Also, in test [2], the IC50 was > 10 µM (inactive).
In test [1], `NC(=O)c1ccsc1NC(=O)c1nc(-c2ccccc2)n(-c2ccccc2)n1` gave a pIC50 of less than 5.00. The IC50 in test [2] was > 10 µM (inactive).
On to `Cc1ccc(C)c(NS(=O)(=O)c2cc(C(=O)N3CCc4ccccc4C3)ccc2Cl)c1`, for which, in test [1], the pIC50 is 5.16. Moreover, the IC50 in test [2] is > 10 µM (inactive).
In test [1], `COC(=O)c1ccc(CSc2nnc(NC(C)C)s2)cc1` had a pIC50 of less than 5.00. Also, in test [2], the IC50 was > 10 µM (inactive).
Turning to `COC(=O)C1=CN(CCCN2CCCC2=O)C=C(C(=O)OC)C1c1ccccc1C(F)(F)F`, the pIC50 in test [1] was less than 5.00. For the same molecule, the IC50 in test [2] is > 10 µM (inactive).
Take `O=C(OCn1ncc(Cl)c(Cl)c1=O)c1cccc(C(F)(F)F)c1`: the pIC50 was 5.45 in test [1] and 5.48 in test [2].
For the molecule `Cc1cc(C(C)(C)C)ccc1OCCN1CCCC1`, in test [1], the pIC50 is less than 5.00. The IC50 in test [2] is > 10 µM (inactive).
The like results for `O=C(NCc1ccccc1)NS(=O)(=O)c1ccccc1Cl` were, in that order, less than 5.00 and > 10 µM (inactive).
On to `CCCCC(=O)Nc1nc(C)c(-c2csc(Nc3ccc(Cl)cc3)n2)s1`, for which, in test [1], the pIC50 was 5.20. Further, the IC50 in test [2] was 6.39 µM (inactive).
Take `CSc1ncccc1C(=O)OCC(=O)N1CCOCC1`: the pIC50 in test [1] is less than 5.00. In test [2], the IC50 was > 10 µM (inactive).
For the molecule `c1ccc(Nc2cc(-c3ccccc3)nc3ncnn23)cc1`, the pIC50 in test [1] was less than 5.00; in test [2] it was 5.28.
In test [1], `Cc1ccc(C(=O)NCc2occc2C(=O)O)o1` had a pIC50 of less than 5.00. The IC50 in test [2] was > 10 µM (inactive).
For `Cc1cc(O)c(/C=N/Nc2ccc(Cl)cc2)c(=O)o1`, the pIC50 in test [1] is 5.33. For the same molecule, in test [2], the IC50 was 5.43 µM (inactive).
The molecule `CCN(CC)C(=O)C1CCN(Cc2ccc(Br)cc2)CC1` gave a pIC50 in test [1] of less than 5.00. Besides, the IC50 in test [2] is > 10 µM (inactive).
Take `Cc1nn(-c2ccccn2)c(C)c1Oc1ccccc1O`: the pIC50 in test [1] is less than 5.00. For the same molecule, the IC50 in test [2] was > 10 µM (inactive).
The molecule `COc1cccc(OCCCCN2CC(C)OC(C)C2)c1` (stereo not drawn) had a pIC50 in test [1] of less than 5.00. In addition, in test [2], the IC50 was > 10 µM (inactive).
As for `O=C(Nc1nnc(-c2ccc3c(c2)CCCC3)o1)c1ccccc1Cl`, the pIC50 in test [1] is 4.97; in test [2] it was 5.80.
As for `CCOC(=O)C1CCN(Cc2cnc(Oc3ccc(Cl)cc3C)s2)CC1`, the pIC50 in test [1] was less than 5.00. Besides, the IC50 in test [2] was > 10 µM (inactive).
`CCOC(=O)C1=C(N)N2C(=O)C(C)SC2=C(C(=O)OC)C1c1ccccc1OC` (stereo not drawn): the pIC50 in test [1] is 6.79. For the same molecule, in test [2], the IC50 was > 10 µM (inactive).
As for `Cc1cc([N+](=O)[O-])c(-c2ccc(/C=N/n3cnnc3)o2)cc1Cl`, the pIC50 in test [1] is 6.87; in test [2], 6.94.
For `Cc1ccc2nc(C)cc(OCC(=O)O)c2c1`, in test [1], the pIC50 was less than 5.00. The IC50 in test [2] was > 10 µM (inactive).
On the same counts, the results for `Cn1c2ccc(Cl)cc2c2nc3ccccc3nc21` are less than 5.00 and > 10 µM (inactive).
Turning to `O=C(c1ccco1)N1CCN=C1SCc1cccnc1`, the pIC50 in test [1] is less than 5.00. Moreover, the IC50 in test [2] was > 10 µM (inactive).
On the same counts, the results for `COCCNC(=O)C(c1ccc(F)cc1)N(CC1CCCO1)C(=O)CCC(=O)Nc1ccccn1` (stereo not drawn) are less than 5.00 and > 10 µM (inactive).
Take `COc1ccc(-c2cc(N)n(S(=O)(=O)c3c(F)c(F)c(F)c(F)c3F)n2)cc1OC`: the pIC50 in test [1] was 5.97. In addition, the IC50 in test [2] was 2.29 µM (inactive).
As to `CCc1cc(=O)oc2cc(C)c(CN3CCCC(C)C3)c(O)c12` (stereo not drawn), the pIC50 in test [1] is less than 5.00. The IC50 in test [2] was > 10 µM (inactive).
For `Cc1ccc(C(=O)OCn2ncc(Cl)c(Cl)c2=O)cc1`, the pIC50 in test [1] was 5.34; in test [2] it was 5.39.
The molecule `CCOC(=O)c1ccc(NC(=O)c2cn(-c3ccccc3)nc2-c2ccncc2)cc1` had a pIC50 in test [1] of 4.94. Also, the IC50 in test [2] was > 10 µM (inactive).
Regarding `CCC(OC(=O)C(NC(=O)c1ccccc1)c1ccccc1)C(=O)Nc1cc(C)on1` (stereo not drawn), in test [1], the pIC50 is less than 5.00. The IC50 in test [2] was > 10 µM (inactive).
The like results for `Cc1ccc(S(=O)(=O)NC(CC(C)C)C(=O)Oc2ccc3c4c(c(=O)oc3c2)CCC4)cc1` (stereo not drawn) were, in that order, less than 5.00 and > 10 µM (inactive).
In test [1], `Fc1ccc(Cn2nnc(-c3ccc(CN4CCOCC4)cc3)n2)cc1` had a pIC50 of less than 5.00. In addition, in test [2], the IC50 is > 10 µM (inactive).
